Laboratory results as given in US8592415B2, “Selective kinase inhibitors” (Reaction Biology Corp., priority 2009, dated 2013).

System: JAK3 phosphorylation
Assay: JAK3 phosphorylation detection by immunoprecipitation and Western blot
Type: cell-based, human
Settings: 0.8 μM compound with IL-2; IL-2 alone more than 12-fold
Experimental: Cell lines: The SZ-4 cell line is derived from a Sézary patient (Abrams, et al., 1991, J Investig Dermatol. 96, 31-37), and the growth of this cell line is IL-2 dependent. The cells are grown in RPMI 1640 medium supplemented with 10% fetal calf serum, 2 mM L-glutamine, penicillin 100 U/ml, streptomycin 100 ug/ml, and 10 I.U/ml IL-2 in a 5% CO2 humidified incubator at 37° C.
Protein and phosphorylation detection by immunoprecipitation and Western Blot: the above cells is used to evaluate the compounds activities of inhibiting JAK/STAT phosphorylations. After the cells are treated as described above, cells are collected and pelleted by centrifuging, cell pellets are then lysed with PI/RIPA lysis buffer (1% NP40, 1% Deoxycholic Acid, 0.1% SDS, 0.15M NaCl, 10 mM Sodium Phosphate, 1 mM PMSF, 2 mM EDTA, 10 mM NaF, 10 mM Napyrophosphate, 0.4 mM Na3VO4, 10 mM Indoacetamide, PH, 8.0) on ice. The lysed cells are centrifuged at 15,000 rpm to remove cell debris, add 5 ul of Anti-Phosphotyrosine, 4G10® Platinum (Upstate Biotechnology, Lake Placid, N.Y.), and incubate for 90 min on ice. Then, the protein A-Sepharose (Invitrogen, Carlsbad, Calif.) is added to precipitate the immune complexes for 1 hr at 4° C. The immunoprecipitates are washed 3× with lysis buffer, and suspended in loading buffer. […]

| Molecule | JAK3 phosphorylation level increase above background level |
| --- | --- |
| O=C(CCl)Nc1cccc(-c2cnc3ccccc3n2)c1 [Example 1, 2-chloro-N-(3-quinoxalin-2-ylphenyl)acetamide] | about 2 fold |

Target: JAK1 (Homo sapiens, UniProt P23458)
Assay: In vitro JAK kinase enzymatic assay (JAK1)
Type: biochemical
Settings: not given
Experimental: (§1) The JAK3 kinase is recombinant human protein (catalytic domain, amino acids 781-1124 with GST-tag), expressed in insect cells (Invitrogen Catalog PV3855). The substrate is poly-glutamic acid-tyrosin peptide, Poly-(GT) (4:1) (Sigma-Aldrich, catalog P7244). [γ-^33P]-ATP is purchased from Perkin Elmer (catalog NEG602H001MC) (EasyTides). Kinase reaction buffer is 100 mM HEPES (pH 7.5), 20 mM MgCl2, 2 mM EGTA, 0.02% Brij 35. The JAK1 (Invitrogen Catalog PV4774), JAK2 (Invitrogen Catalog PV4210) and TYK2 Invitrogen Catalog PV4790) enzymatic assays are performed in the similar way. JAK1 and JAK2 substrate is Poly-(GT) (4:1), but TYK2 substrate is peptide with sequences of […]. The reaction is carried for 2 hours at room temperature. After the reactions are finished or stopped, portion or all the reaction mixtures are transferred onto filter paper P81 Phosphocellulose paper (Whatman catalog 3698-915) for binding the final radioisotope labeled products. The unreacted phosphate are washed away without interfering with the detection of real phosphorylated products. The final product can be detected by instruments such as scintillation counter, top counter or phosphoimager. The enzymatic assays can also performed in assays described those described in the art [e.g., Ma H et al, Expert Opin. Drug Discov. 3, 607-621 (2008); Olive D M, Expert Rev Proteomics, 1, 327-341 (2004)].
(§2) Signal=Bottom+(Top−Bottom)/(1+10^((Log(IC50)−Log [I])*Hill Slope) Bottom and Top refer to the post and pre-transition baselines, respectively.

| Molecule | IC50 [µM] |
| --- | --- |
| 1-methyl-3-[3-(quinoxalin-2-yl)phenyl]thiourea [Example 11] | > 50 |
| 2-[4-(4-chlorophenyl)piperazin-1-yl]-N-(3-(quinoxalin-2-yl)phenyl)acetamide [Example 4] | > 20 |
| O=C(CCl)Nc1cccc(-c2cnc3ccccc3n2)c1 [Example 1, 2-chloro-N-(3-quinoxalin-2-ylphenyl)acetamide] | > 20 |
| CCC(=O)Nc1cccc(-c2cnc3ccccc3n2)c1 [Example 6, N-[3-(quinoxalin-2-yl)phenyl]propionamide] | > 50 |
| N#CCC(=O)Nc1cccc(-c2cnc3ccccc3n2)c1 [Example 8, 2-cyano-N-[3-(quinoxalin-2-yl)phenyl]acetamide] | > 20 |
| O=C(CN1CCCCC1)Nc1cccc(-c2cnc3ccccc3n2)c1 [Example 9, 2-(piperidin-1-yl)-N-[3-(quinoxalin-2-yl)phenyl]acetamide] | > 20 |
| O=S(=O)(Nc1cccc(-c2cnc3ccccc3n2)c1)c1cccs1 [Example 13, N-[3-(quinoxalin-2-yl)phenyl]thiophene-2-sulfonamide] | > 50 |
| O=C(CN1CCN(c2ccccc2)CC1)Nc1cccc(-c2cnc3ccccc3n2)c1 [Example 16, 2-(4-phenylpiperazin-1-yl)-N-[3-(quinoxalin-2-yl)phenyl]acetamide] | > 20 |
| O=C(Nc1cccc(-c2cnc3ccccc3n2)c1)C(Cl)Cl [Example 18, 2,2-dichloro-N-[3-(quinoxalin-2-yl)phenyl]acetamide] | > 10 |
| O=C(CCCl)Nc1cccc(-c2cnc3ccccc3n2)c1 [Example 19, 3-chloro-N-[3-(quinoxalin-2-yl)phenyl]propanamide] | > 50 |
| CC(Cl)C(=O)Nc1cccc(-c2cnc3ccccc3n2)c1 (stereo not drawn) [Example 21, 2-chloro-N-(3-(quinoxalin-2-yl)phenyl)propanamide] | > 50 |

Target: TYK2 (Homo sapiens (Human), UniProt P29597)
Assay: In vitro JAK kinase enzymatic assay (TYK2)
Type: biochemical
Settings: not given
Experimental: as §1, §2

Sequence of TYK2 (P29597 whole entry): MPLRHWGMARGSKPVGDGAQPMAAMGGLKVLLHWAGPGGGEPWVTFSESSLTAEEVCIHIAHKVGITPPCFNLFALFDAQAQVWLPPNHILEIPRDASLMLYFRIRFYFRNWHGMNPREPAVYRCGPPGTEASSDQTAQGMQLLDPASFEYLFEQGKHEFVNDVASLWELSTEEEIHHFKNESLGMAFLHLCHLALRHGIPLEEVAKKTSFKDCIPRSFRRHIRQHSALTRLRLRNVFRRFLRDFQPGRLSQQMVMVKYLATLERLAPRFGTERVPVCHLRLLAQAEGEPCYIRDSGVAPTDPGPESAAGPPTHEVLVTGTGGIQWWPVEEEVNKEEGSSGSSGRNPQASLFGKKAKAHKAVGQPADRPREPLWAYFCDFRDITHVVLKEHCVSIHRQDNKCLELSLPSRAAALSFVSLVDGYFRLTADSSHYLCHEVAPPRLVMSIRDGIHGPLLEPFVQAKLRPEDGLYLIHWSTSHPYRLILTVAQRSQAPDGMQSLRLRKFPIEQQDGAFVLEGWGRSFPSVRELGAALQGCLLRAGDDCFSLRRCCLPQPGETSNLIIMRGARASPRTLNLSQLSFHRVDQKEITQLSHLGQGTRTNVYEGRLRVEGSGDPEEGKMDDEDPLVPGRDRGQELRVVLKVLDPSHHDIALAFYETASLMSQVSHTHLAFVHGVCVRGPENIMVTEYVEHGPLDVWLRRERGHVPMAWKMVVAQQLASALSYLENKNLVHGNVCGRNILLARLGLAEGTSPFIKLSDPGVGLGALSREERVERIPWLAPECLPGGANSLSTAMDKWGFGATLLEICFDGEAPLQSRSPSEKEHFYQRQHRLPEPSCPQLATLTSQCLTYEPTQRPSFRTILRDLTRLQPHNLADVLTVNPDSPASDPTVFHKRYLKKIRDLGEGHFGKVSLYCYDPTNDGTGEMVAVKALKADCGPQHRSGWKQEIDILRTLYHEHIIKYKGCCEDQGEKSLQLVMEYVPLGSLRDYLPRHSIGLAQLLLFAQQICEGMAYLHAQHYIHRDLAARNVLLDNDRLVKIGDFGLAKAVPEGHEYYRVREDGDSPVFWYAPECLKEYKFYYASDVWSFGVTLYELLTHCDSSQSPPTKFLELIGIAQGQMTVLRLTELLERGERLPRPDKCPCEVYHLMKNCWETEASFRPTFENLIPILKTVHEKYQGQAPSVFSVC

| Molecule | IC50 [µM] |
| --- | --- |
| 1-methyl-3-[3-(quinoxalin-2-yl)phenyl]thiourea [Example 11] | > 50 |
| 2-[4-(4-chlorophenyl)piperazin-1-yl]-N-(3-(quinoxalin-2-yl)phenyl)acetamide [Example 4] | > 20 |
| O=C(CCl)Nc1cccc(-c2cnc3ccccc3n2)c1 [Example 1, 2-chloro-N-(3-quinoxalin-2-ylphenyl)acetamide] | > 20 |
| CCC(=O)Nc1cccc(-c2cnc3ccccc3n2)c1 [Example 6, N-[3-(quinoxalin-2-yl)phenyl]propionamide] | > 50 |
| N#CCC(=O)Nc1cccc(-c2cnc3ccccc3n2)c1 [Example 8, 2-cyano-N-[3-(quinoxalin-2-yl)phenyl]acetamide] | > 20 |
| O=C(CN1CCCCC1)Nc1cccc(-c2cnc3ccccc3n2)c1 [Example 9, 2-(piperidin-1-yl)-N-[3-(quinoxalin-2-yl)phenyl]acetamide] | > 20 |
| O=S(=O)(Nc1cccc(-c2cnc3ccccc3n2)c1)c1cccs1 [Example 13, N-[3-(quinoxalin-2-yl)phenyl]thiophene-2-sulfonamide] | > 50 |
| O=C(CN1CCN(c2ccccc2)CC1)Nc1cccc(-c2cnc3ccccc3n2)c1 [Example 16, 2-(4-phenylpiperazin-1-yl)-N-[3-(quinoxalin-2-yl)phenyl]acetamide] | > 20 |
| O=C(Nc1cccc(-c2cnc3ccccc3n2)c1)C(Cl)Cl [Example 18, 2,2-dichloro-N-[3-(quinoxalin-2-yl)phenyl]acetamide] | > 10 |
| O=C(CCCl)Nc1cccc(-c2cnc3ccccc3n2)c1 [Example 19, 3-chloro-N-[3-(quinoxalin-2-yl)phenyl]propanamide] | > 50 |
| CC(Cl)C(=O)Nc1cccc(-c2cnc3ccccc3n2)c1 (stereo not drawn) [Example 21, 2-chloro-N-(3-(quinoxalin-2-yl)phenyl)propanamide] | > 50 |

Target: JAK3 (Homo sapiens (Human), UniProt P52333)
Assay: In vitro JAK kinase enzymatic assay (JAK3)
Type: biochemical
Settings: not given
Experimental: as §1, §2

Sequence of JAK3 (P52333 781-1124): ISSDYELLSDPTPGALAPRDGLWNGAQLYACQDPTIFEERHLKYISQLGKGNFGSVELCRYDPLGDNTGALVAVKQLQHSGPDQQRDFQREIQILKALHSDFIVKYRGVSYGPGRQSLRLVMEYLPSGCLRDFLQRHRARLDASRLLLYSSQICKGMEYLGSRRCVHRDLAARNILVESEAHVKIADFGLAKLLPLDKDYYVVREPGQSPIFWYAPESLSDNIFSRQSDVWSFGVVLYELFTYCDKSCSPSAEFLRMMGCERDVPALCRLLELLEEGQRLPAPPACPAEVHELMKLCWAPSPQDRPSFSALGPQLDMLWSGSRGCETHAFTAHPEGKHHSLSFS

| Molecule | IC50 [nM] |
| --- | --- |
| 1-methyl-3-[3-(quinoxalin-2-yl)phenyl]thiourea [Example 11] | > 50000 |
| 2-[4-(4-chlorophenyl)piperazin-1-yl]-N-(3-(quinoxalin-2-yl)phenyl)acetamide [Example 4] | 2700 |
| O=C(CCl)Nc1cccc(-c2cnc3ccccc3n2)c1 [Example 1, 2-chloro-N-(3-quinoxalin-2-ylphenyl)acetamide] | 0.2 |
| CCC(=O)Nc1cccc(-c2cnc3ccccc3n2)c1 [Example 6, N-[3-(quinoxalin-2-yl)phenyl]propionamide] | > 50000 |
| N#CCC(=O)Nc1cccc(-c2cnc3ccccc3n2)c1 [Example 8, 2-cyano-N-[3-(quinoxalin-2-yl)phenyl]acetamide] | 136 |
| O=C(CN1CCCCC1)Nc1cccc(-c2cnc3ccccc3n2)c1 [Example 9, 2-(piperidin-1-yl)-N-[3-(quinoxalin-2-yl)phenyl]acetamide] | 175 |
| O=S(=O)(Nc1cccc(-c2cnc3ccccc3n2)c1)c1cccs1 [Example 13, N-[3-(quinoxalin-2-yl)phenyl]thiophene-2-sulfonamide] | > 50000 |
| O=C(CN1CCN(c2ccccc2)CC1)Nc1cccc(-c2cnc3ccccc3n2)c1 [Example 16, 2-(4-phenylpiperazin-1-yl)-N-[3-(quinoxalin-2-yl)phenyl]acetamide] | 270 |
| O=C(Nc1cccc(-c2cnc3ccccc3n2)c1)C(Cl)Cl [Example 18, 2,2-dichloro-N-[3-(quinoxalin-2-yl)phenyl]acetamide] | 500 |
| O=C(CCCl)Nc1cccc(-c2cnc3ccccc3n2)c1 [Example 19, 3-chloro-N-[3-(quinoxalin-2-yl)phenyl]propanamide] | > 50000 |
| CC(Cl)C(=O)Nc1cccc(-c2cnc3ccccc3n2)c1 (stereo not drawn) [Example 21, 2-chloro-N-(3-(quinoxalin-2-yl)phenyl)propanamide] | 330 |

System: SZ-4 cells
Assay: IL-2 dependent cell proliferation assay (MTT)
Type: cell-based
Settings: Homo sapiens, 72 hr, IL-2, MTT, read-out: IC50, inhibition of proliferation
Source text: The number of surviving cells is directly proportional to the level of the formazan product created.

| Molecule | IC50 [nM] |
| --- | --- |
| O=C(CCl)Nc1cccc(-c2cnc3ccccc3n2)c1 [Example 1, 2-chloro-N-(3-quinoxalin-2-ylphenyl)acetamide] | 0.3 |
| O=C(CN1CCN(c2ccccc2)CC1)Nc1cccc(-c2cnc3ccccc3n2)c1 [Example 16, 2-(4-phenylpiperazin-1-yl)-N-[3-(quinoxalin-2-yl)phenyl]acetamide] | 270 |

Target: JAK2 (Homo sapiens, UniProt O60674)
Assay: In vitro JAK kinase enzymatic assay (JAK2)
Type: biochemical
Settings: not given
Experimental: as §1, with “The” for “The JAK3 kinase is recombinant human protein (catalytic domain, amino acids 781-1124 with GST-tag), expressed in insect cells (Invitrogen Catalog PV3855). The”, “After the reactions are finished or stopped, portion or all the reaction mixtures are transferred onto filter paper P81 Phosphocellulose paper (Whatman catalog 3698-915) for binding the final radioisotope labeled products.” left out, “Discov.” for “Discov. 3, 607-621 (2008); Olive D M, Expert Rev Proteomics, 1, 327-341 (2004)].”
as §2

Sequence of JAK2 (Homo sapiens, UniProt O60674) (O60674 whole entry, looked up): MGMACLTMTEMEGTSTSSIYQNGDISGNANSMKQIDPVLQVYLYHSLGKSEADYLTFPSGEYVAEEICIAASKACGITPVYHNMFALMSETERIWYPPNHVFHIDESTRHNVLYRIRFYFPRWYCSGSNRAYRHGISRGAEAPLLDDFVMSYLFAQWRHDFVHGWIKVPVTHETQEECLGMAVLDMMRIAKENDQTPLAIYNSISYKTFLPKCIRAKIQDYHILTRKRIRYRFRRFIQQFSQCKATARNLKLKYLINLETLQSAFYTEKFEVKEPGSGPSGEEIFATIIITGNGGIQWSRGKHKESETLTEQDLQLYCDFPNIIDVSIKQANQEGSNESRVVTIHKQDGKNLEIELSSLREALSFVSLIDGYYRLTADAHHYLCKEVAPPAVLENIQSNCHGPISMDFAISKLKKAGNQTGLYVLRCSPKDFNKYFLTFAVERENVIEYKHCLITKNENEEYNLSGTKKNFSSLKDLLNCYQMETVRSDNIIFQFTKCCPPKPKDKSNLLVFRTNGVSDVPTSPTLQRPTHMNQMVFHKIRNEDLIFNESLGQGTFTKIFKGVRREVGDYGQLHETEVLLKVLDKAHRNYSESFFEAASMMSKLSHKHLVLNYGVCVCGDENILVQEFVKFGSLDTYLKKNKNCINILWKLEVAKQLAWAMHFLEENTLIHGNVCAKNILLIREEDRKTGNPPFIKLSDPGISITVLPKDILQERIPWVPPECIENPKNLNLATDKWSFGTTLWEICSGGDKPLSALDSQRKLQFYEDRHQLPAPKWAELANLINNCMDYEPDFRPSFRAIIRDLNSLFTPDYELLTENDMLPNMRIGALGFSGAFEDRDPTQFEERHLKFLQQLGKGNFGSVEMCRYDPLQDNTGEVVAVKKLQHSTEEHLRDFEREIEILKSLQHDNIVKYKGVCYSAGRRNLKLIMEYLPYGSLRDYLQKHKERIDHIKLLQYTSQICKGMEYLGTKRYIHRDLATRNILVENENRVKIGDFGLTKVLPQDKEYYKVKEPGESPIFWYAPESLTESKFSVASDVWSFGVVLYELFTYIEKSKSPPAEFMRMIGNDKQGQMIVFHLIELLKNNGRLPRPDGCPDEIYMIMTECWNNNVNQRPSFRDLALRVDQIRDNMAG

| Molecule | IC50 [µM] |
| --- | --- |
| 1-methyl-3-[3-(quinoxalin-2-yl)phenyl]thiourea [Example 11] | 25.5 |
| 2-[4-(4-chlorophenyl)piperazin-1-yl]-N-(3-(quinoxalin-2-yl)phenyl)acetamide [Example 4] | > 20 |
| O=C(CCl)Nc1cccc(-c2cnc3ccccc3n2)c1 [Example 1, 2-chloro-N-(3-quinoxalin-2-ylphenyl)acetamide] | > 10 |
| CCC(=O)Nc1cccc(-c2cnc3ccccc3n2)c1 [Example 6, N-[3-(quinoxalin-2-yl)phenyl]propionamide] | > 50 |
| N#CCC(=O)Nc1cccc(-c2cnc3ccccc3n2)c1 [Example 8, 2-cyano-N-[3-(quinoxalin-2-yl)phenyl]acetamide] | > 10 |
| O=C(CN1CCCCC1)Nc1cccc(-c2cnc3ccccc3n2)c1 [Example 9, 2-(piperidin-1-yl)-N-[3-(quinoxalin-2-yl)phenyl]acetamide] | > 10 |
| O=S(=O)(Nc1cccc(-c2cnc3ccccc3n2)c1)c1cccs1 [Example 13, N-[3-(quinoxalin-2-yl)phenyl]thiophene-2-sulfonamide] | 55.5 |
| O=C(CN1CCN(c2ccccc2)CC1)Nc1cccc(-c2cnc3ccccc3n2)c1 [Example 16, 2-(4-phenylpiperazin-1-yl)-N-[3-(quinoxalin-2-yl)phenyl]acetamide] | > 10 |
| O=C(Nc1cccc(-c2cnc3ccccc3n2)c1)C(Cl)Cl [Example 18, 2,2-dichloro-N-[3-(quinoxalin-2-yl)phenyl]acetamide] | > 10 |
| O=C(CCCl)Nc1cccc(-c2cnc3ccccc3n2)c1 [Example 19, 3-chloro-N-[3-(quinoxalin-2-yl)phenyl]propanamide] | > 50 |
| CC(Cl)C(=O)Nc1cccc(-c2cnc3ccccc3n2)c1 (stereo not drawn) [Example 21, 2-chloro-N-(3-(quinoxalin-2-yl)phenyl)propanamide] | > 50 |

Target: JAK2
Assay: In vitro JAK kinase enzymatic assay (JAK2)
Type: biochemical
Settings: not given
Experimental: as §1, with “The” for “The JAK3 kinase is recombinant human protein (catalytic domain, amino acids 781-1124 with GST-tag), expressed in insect cells (Invitrogen Catalog PV3855). The”, “After the reactions are finished or stopped, portion or all the reaction mixtures are transferred onto filter paper P81 Phosphocellulose paper (Whatman catalog 3698-915) for binding the final radioisotope labeled products.” left out, “Discov.” for “Discov. 3, 607-621 (2008); Olive D M, Expert Rev Proteomics, 1, 327-341 (2004)].”
as §2

| Molecule | IC50 [µM] |
| --- | --- |
| O=C(CCl)Nc1cccc(-c2cnc3ccccc3n2)c1 [Example 1, 2-chloro-N-(3-quinoxalin-2-ylphenyl)acetamide] | > 20 |
| N#CCC(=O)Nc1cccc(-c2cnc3ccccc3n2)c1 [Example 8, 2-cyano-N-[3-(quinoxalin-2-yl)phenyl]acetamide] | 18.1 |
| O=C(CN1CCCCC1)Nc1cccc(-c2cnc3ccccc3n2)c1 [Example 9, 2-(piperidin-1-yl)-N-[3-(quinoxalin-2-yl)phenyl]acetamide] | > 20 |
| O=C(CN1CCN(c2ccccc2)CC1)Nc1cccc(-c2cnc3ccccc3n2)c1 [Example 16, 2-(4-phenylpiperazin-1-yl)-N-[3-(quinoxalin-2-yl)phenyl]acetamide] | 18 |
